Data reported in patent publication US20180200233A1, “COMPOSITIONS FOR PREVENTING CANCERS ASSOCIATED WITH HUMAN PAPILLOMA VIRUSES” (Loma Linda University, priority 2015, published 2018).

Tested on: SiHa cells
Test: in vitro
Assay type: cell-based, human
Description: FIGS. 3A-E are graphs providing data regarding resistance of HPV^+ SiHa cells to TRAIL-, cisplatin- and […] apoptosis, in the presence and absence of small molecules as disclosed herein. (FIG. 3A) HPV^+ SiHa cells are resistant to TRAIL-induced apoptosis as compared to the human osteosarcoma cell line U2OS. Cells (2×10^4 cells per well) were seeded into a 96-well plate, allowed to incubate overnight, and then treated with indicated concentration of TRAIL in the presence of cycloheximide (5 μg/ml). The viability of cells was measured after overnight incubation using the MTT assay; the viability of cells untreated with TRAIL was set at 100% for each group. (FIG. 3B) The indicated concentrations of three small molecules were added to SiHa cells, and an MTT assay was preformed after overnight incubation. The viability of cells untreated with small molecules was set as 100%. (FIG. 3C) The indicated concentrations of myricetin or spinacine were added 4 h prior to TRAIL (100 ng/ml) in the presence of cycloheximide (5 μg/ml) and incubated at 37° C. overnight. The viability of cells untreated with small molecules was set at 100%. (FIG. 3D and FIG. 3E) SiHa cells (2×10^4 cells per well) were seeded into a 96-well plate and allowed to incubate overnight. 100 μM of myricetin and 50 μM of spinacine were added 4 h prior to either (FIG. 3D) doxorubicin or (FIG. 3E) cisplatin. Cell viability was measured after overnight incubation using the MTT assay, and the viability of cells untreated with either myricetin or spinacine was set at 100%. Experiments were performed in triplicate, and error bars indicate the standard deviation.
The molecules were then tested to determine whether those that block E6/caspase 8 binding in vitro could also act in the context of a cell. SiHa cells are an HPV^+ cell line, derived from a cervical carcinoma, which serves as a commonly used model for HPV-associated malignancies. To determine whether HPV^+ SiHa cells are resistant to TRAIL-induced apoptosis, SiHa cells were treated with TRAIL and cell viability was assessed. TRAIL-sensitive, HPV^− U2OS cells served as a positive control. […] Myricetin and/or spinacine were tested to determine if they could sensitize these HPV^+ cells to TRAIL-induced apoptosis. […] Table 2 lists and compares the concentrations of the three tested compounds required to induce death in 50% of SiHa cells in the presence or absence of TRAIL.
The extracellular domain of human TRAIL was cloned into a pTriEx expression plasmid containing N-terminal Hisx6 tag. His-TRAIL was expressed in the E. coli BL-21 pLys strain and purified as previously described. Doxorubicin and cisplatin were purchased from Sigma. His-TRAIL, doxorubicin, and cisplatin were diluted in PBS to the desired concentration before using. To measure cell survival following treatment with TRAIL, cisplatin and doxorubicin, SiHa (2×10^4/well), C33A (1×10^4/well), and HNSCC cells (2×10^4/well) were seeded into 96-well plates and allowed to adhere overnight. Small molecules at the desired concentration were added and incubated at 37° C. for 4 h. As indicated, TRAIL, cisplatin or doxorubicin was then added. […] All experiments were repeated at least three times (three biological replicates, carried out on different days), with each experimental group measured in triplicate within each of these individual experiments. […]

SMILES: O=C(O)C1Cc2[nH]cnc2CN1 (centres unmarked) [Compound 5, 4,5,6,7-Tetrahydro-1H-imidazo(4,5-c)pyridine-6-carboxylic acid]
- toxicity to SiHa cells in the absence of TRAIL (in words): low toxicity

SMILES: O=c1c(O)c(-c2cc(O)c(O)c(O)c2)oc2cc(O)cc(O)c12 [Myricetin, reference compound]
- toxicity to SiHa cells in the absence of TRAIL (in words): low toxicity
